The values below come from patent publication US6797694B2, “Chemical compounds having ion channel blocking activity for the treatment of immune dysfunction” (priority 1999, dated 2004).

For the assay, the system named is T cells. The assay is described as follows: Inhibition of antigen (PPD) induced T cell proliferation, [3H]thymidine incorporation. The class given is cell-based. The following applies: solvent control 26.1. Here is the method:
The chemical compounds used according to the invention prevent immunological proliferation by selective inhibition of the Ca^2+-activated K-channels in T- and B-lymphocytes. This effect may be verified using various proliferation assays. In this experiment the proliferative assay described by Ødum et al. [Ødum N, Kanner S B, Ledbetter J A, & Svejgaard A; J. Immunol. 1993 150 (12) 5289-5298] was used.
Assays were performed in culture medium (RPMI 1640; available from Gibco, Grand Island, N.Y.) supplemented with 10% pooled human serum, 2 mM L-glutamine, 100 μg/ml penicillin, and 100 μg/ml streptomycin (available from Novo Nordisk, Copenhagen, Denmark) in 96-well round bottom tissue culture plates (available from Nunc, Roskilde, Denmark) with a final volume of 200 μl.
T cells were pre-incubated for three hours with the test compounds before addition of antigen (PPD; Purified protein derivative, available from Statens Serum Institut, Denmark; 100 μg/ml). T cells were cultured at 5×10^4 cells/well for 144 hours. Twelve hours before harvest, [^3H]thymidine ([…]) was added. The cells were harvested onto glass fibre filters, and the [^3H]thymidine incorporation was measured in a scintillation counter. The results were expressed as mean counts per minute (cpm) from triplicate cultures.

Regarding `OC(c1ccccc1)(c1ccccc1)c1ccc(Cl)cc1` [A, (4-chlorophenyl-diphenyl)-carbinol], the “T Cell Proliferation” value is, setting by setting: (test compound 10 μM) 19.8 cpm × 10^−3; (test compound 25 μM) 18.1 cpm × 10^−3.
The matching figures for `CC(=O)C(c1ccccc1)(c1ccccc1)c1ccccc1` [C, 1,1,1-triphenylacetone]: 18 cpm × 10^−3 and 19 cpm × 10^−3.
